Experimental data: patent US11708391B2, “Rapaglutins, novel inhibitors of GLUT and use thereof” (The Johns Hopkins University, priority 2016, dated 2023)
Entries after “also recorded” stand apart in the source; their conditions may differ. Where two headings read alike, the source gives them in different places.

Columns and labels:
[1] = tested on: AMPK; experiment: Western blot, AMPK phosphorylation in HEK 293T; assay type: cell-based
Excerpt: (§1) FIGS. 7A-7B. (a) A18 activates AMPK and inhibits S6K in HEK 293T cells. […] (b) A18 and E11 activate AMPK and inhibit S6K in HEK 293T cells.
(§2) Whether A18 and E11 treatment affect key cell growth signaling proteins was examined next. […] But it has no effects on the phosphorylation of ERK, AKT or JNK (FIG. 7). As previously reported, AMPK is likely to act as the key link between the ATP reduction and the subsequent cancer cell inhibition. (FIGS. 7 and 23-25). Based on the data reported here, the working model for A18 and E11 was proposed as outlined in FIG. 8. […] These led to upregulation of phosphorylation of AMPK and downregulation of phosphorylation of S6K. […] (FIG. 8)

[2] = tested on: NFAT; experiment: NFAT reporter gene assay; assay type: cell-based
Excerpt: FIGS. 28A-28D. (a) A18 and E11 inhibit NFAT and A18, but not E11, stimulates SRE reporter gene signal. (b) E11 inhibits NFAT, NF-κB and IL2, but not MEF-2 or AP-1 pathways, in Jurkat T cells. (c) Glucose inhibitor stimulates SRE reporter gene signal.
Both A18 and E11 have shown immunosuppressive activity, blocking NFAT reporter gene activation and IL-2 production (see e.g., FIG. 28). As such, they can be used as immunosuppressive agents that have applications in treating organ transplantation rejection and all kinds of autoimmune diseases. […]

[3] = tested on: ERK, AKT or JNK; experiment: Western blot, phosphorylation of ERK, AKT or JNK; assay type: cell-based
Excerpt: as §2

[4] = tested on: mTOR; experiment: Western blot, mTOR / S6K in HEK 293T; assay type: cell-based
Excerpt: as §1, §2

[5] = tested on: T1, glucose transporters; experiment: 2-deoxy-D-[3H] glucose uptake in A549 cells; assay type: cell-based, human; details: for inhibition of glucose transport: A549 cells, glucose uptake assay
T1 construct: IC50 uptake of 3H-labeled 3-O-methylglucose; other: A549 cells; compared with 3-O-methylglucose uptake; other: A549 cells treated with drugs for 1 min; other: A549 cells, glucose uptake assay; other
Protocol: (§3) FIGS. 2A-2D. Inhibition of Glucose Transport by A18 and E11. (a) Inhibition of 3-O-methyl¬D-[3H] glucose uptake in A549 cells by A18. (b) Inhibition of 3-O-methyl-D-[3H] glucose uptake in A549 cells by E11. (c) Inhibition of 2-deoxy-D-[3H] glucose uptake in A549 […] cells by A18. (d) Inhibition of 2-deoxy-D-[3H] glucose uptake in A549 cells by E11.
FIGS. 16A-16B. Inhibition of Glucose Transport by A18 and E11. Cytochalasin B (10 μM), A18 (3 μM), E11 (3 μM) and DMSO control were used to treated A549 cells for 10 min (a) or 1 min (b), then glucose uptake in the treated cells was measured at 1, 3, 10 and 30 min after the addition of 2-dexoy-D-[^3H] glucose.
(§4) Direct action on glucose transporters was measured by monitoring uptake of 3H-labeled 3-O-methylglucose, which is transported by glucose transporters but not metabolized further, allowing the assessment of initial rate of glucose uptake. […] Initial uptake can also be assessed by measuring the uptake of 3H-labeled 2-deoxy-D-glucose, which gets into the cell through glucose transporters and is phosphorylated by hexokinase but cannot be metabolized further due to the lack of oxygen at the second position.

[6] = tested on: HeLa; experiment: alamar blue assay, HeLa; assay type: cell-based
Excerpt: (§5) Dose-dependent inhibition of cell proliferation by A18 and E11 was next evaluated in several other human cancer cell lines, including breast cancer HCC1954, pancreatic cancer PANC10.05, leukemia Jurkat T and colon cancer RKO (FIGS. 1b and 1c). […] (FIGS. 1 and 9; Table 3)

[7] = tested on: T1, glucose transporters; experiment: 3-O-methyl-D-[3H] glucose uptake in A549 cells; assay type: cell-based, human; details: read-out: IC50 uptake of 3H-labeled 3-O-methylglucose
Protocol: as §3, §4

[8] = tested on: DLD-1 GLUT1 gene knock out cells; experiment: alamar blue cell viability assay, DLD-1 GLUT1 knock out; assay type: cell-based
Excerpt: (§6) FIGS. 19A-19C. E11 is a specific inhibitor of Glut1. (a)(b) Inhibition of cell proliferation in A549, DLD-1 wild type and Glut1 knock out cells by A18 and E11. (c) Potency of A18 and E11 against the alamar blue assay in A549, DLD-1 wild type and Glut1 knock out cells.
(§7) Up to now, at least 14 different isoforms of GLUTs have been identified in human cells. It was then asked whether A18 and E11 are specific inhibitors of GLUT1. To answer this question, colon cancer DLD-1 wild type and GLUT1 gene knock out cell lines were chosen as a cell model (FIG. 4a). […] GLUTs that are most relevant to cancer are Glut1 and Glut3. To obtain additional evidence, Glut1 and Glut3 in HEK 293T cells were overexpressed and an alamar blue cell viability assay was performed again. […] (see FIGS. 4, 19, 20, 26; Table 4).

[9] = tested on: DLD-1 wild type; experiment: alamar blue cell viability assay, DLD-1 wild type; assay type: cell-based
Excerpt: as §6, §7

[10] = tested on: leukemia Jurkat T; experiment: alamar blue assay, Jurkat T; assay type: cell-based, human
Excerpt: as §5

[11] = tested on: HEK 293T FLAG-Glut1; experiment: alamar blue assay, HEK 293T Glut1 overexpression cells; assay type: cell-based; details: for IC50: HEK 293T FLAG-Glut1
Excerpt: FIGS. 20A-20C. E11 is a specific inhibitor of Glut1. (a) Glut1 and Glut3 protein levels of wild type, Glut1 and Glut3 overexpression cells analyzed by western blotting. (b)(c) Inhibition of cell proliferation in HEK293T, Glut1 and Glut3 overexpression cells by A18 and E11.
as §7

[12] = tested on: colon cancer RKO; experiment: alamar blue assay, RKO; assay type: cell-based, human
Excerpt: as §5

Compound | phosphorylation of AMPK [1] | NFAT reporter gene signal [2] | phosphorylation of ERK, AKT or JNK [3] | mTOR inhibition (S6K) [4] | inhibition of glucose transport [5] | IC50 ([6]; Homo sapiens) [nM] | IC50 [7] [nM] | inhibition of cell proliferation, alamar blue [8] | inhibition of cell proliferation, alamar blue [9] | IC50 ([10]; Homo sapiens) [nM] | IC50 ([11]; Homo sapiens) [nM] | IC50 ([12]; Homo sapiens) [nM] | glucose uptake inhibition ([5]; A549 cells treated with drugs for 1 min) [%] | IC50 [6] [nM] | IC50 [10] [nM] | inhibition in alamar blue cell viability assay ([11]; GLUT1 overexpression HEK 293T cells) | IC50 [11] [nM] | IC50 [12] [nM]
CC[C@@H](C)[C@H]1C(=O)NCC(=O)N(C)CC/C=C/C(=O)OCC(C)(C)C(=O)C(=O)N2CCCC[C@H]2C(=O)O[C@H](CCc2ccc(OC)c(OC)c2)c2cccc(c2)NC(=O)CCC(=O)N(C)[C@@H](CC(C)C)C(=O)N[C@H](Cc2ccccc2)C(=O)N1C [A18] | inducing phosphorylation of AMPK | inhibit; also recorded: blocking | no effects | mTOR inhibition | significantly inhibit | 281 | 18.7 | strongly inhibited | strongly inhibited | 132 | 573 | 114 |  |  |  |  |  | 
Gly-^MSerBu-Nal-^MAla [E11] | inducing phosphorylation of AMPK | inhibit; also recorded: blocking | no effects | mTOR inhibition | significantly inhibit |  | 38.2 | didn't show any inhibition | kept inhibitory activity |  |  |  | 50 | 383 | 251 | kept partial inhibitory activity | 658 | 714
